Reference: patent publication US11866720B2, “Transgenic or non-transgenic plants with mutated protoporphyrinogen oxidase having increased tolerance to herbicides” (priority 2013, dated 2024)
Substitutions are numbered along the chain they refer to. Several values for one entry are separate records, joined by “and”; a condition that tells them apart may be missing. Equal entries are not always repeated.

Experiments:
Assay in all cases: biochemical
Details in all cases: IC50 (M)
[1] = target: T1, recombinant wildtype and mutated PPO (Amaranthus PPO2: PPX2L_WC SEQ ID NO 2, PPX2L_AC SEQ ID NO 4, dG210 SEQ ID NO 6 & 8) (Amaranthus tuberculatus, UniProt Q0NZW9, D133A/F420I/R128Y)
T1 sequence (Q0NZW9 1-534 R128Y/D133A/F420I): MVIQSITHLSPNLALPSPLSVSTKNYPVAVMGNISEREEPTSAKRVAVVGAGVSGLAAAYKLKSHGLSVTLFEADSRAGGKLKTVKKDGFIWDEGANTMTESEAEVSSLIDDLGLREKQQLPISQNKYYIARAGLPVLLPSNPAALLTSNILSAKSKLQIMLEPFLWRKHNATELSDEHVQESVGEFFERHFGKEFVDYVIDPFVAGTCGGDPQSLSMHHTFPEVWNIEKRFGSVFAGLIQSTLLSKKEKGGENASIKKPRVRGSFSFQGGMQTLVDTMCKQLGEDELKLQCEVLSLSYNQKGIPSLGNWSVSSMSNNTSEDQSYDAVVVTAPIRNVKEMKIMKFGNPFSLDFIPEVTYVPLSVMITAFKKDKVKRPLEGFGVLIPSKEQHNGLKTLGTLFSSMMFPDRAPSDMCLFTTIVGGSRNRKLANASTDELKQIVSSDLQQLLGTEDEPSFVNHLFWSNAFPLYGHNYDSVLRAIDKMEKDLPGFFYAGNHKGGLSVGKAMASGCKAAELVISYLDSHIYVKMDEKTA

[2] = target: T2, recombinant wildtype and mutated PPO (Amaranthus PPO2: PPX2L_WC SEQ ID NO 2, PPX2L_AC SEQ ID NO 4, dG210 SEQ ID NO 6 & 8) (Amaranthus tuberculatus, UniProt Q0NZW9, D133A/F420L/R128I)
T2 sequence (Q0NZW9 1-534 R128I/D133A/F420L): T1 sequence (Q0NZW9 1-534 R128Y/D133A/F420I) with Y128I, I420L

[3] = target: recombinant wildtype and mutated PPO (Amaranthus PPO2: PPX2L_WC SEQ ID NO 2, PPX2L_AC SEQ ID NO 4, dG210 SEQ ID NO 6 & 8) (Amaranthus tuberculatus, UniProt Q0NZW9, D133A/F420M/R128M)
recombinant wildtype and mutated PPO (Amaranthus PPO2: PPX2L_WC SEQ ID NO 2, PPX2L_AC SEQ ID NO 4, dG210 SEQ ID NO 6 & 8) (Amaranthus tuberculatus, UniProt Q0NZW9, D133A/F420M/R128M), sequence (Q0NZW9 1-534 R128M/D133A/F420M): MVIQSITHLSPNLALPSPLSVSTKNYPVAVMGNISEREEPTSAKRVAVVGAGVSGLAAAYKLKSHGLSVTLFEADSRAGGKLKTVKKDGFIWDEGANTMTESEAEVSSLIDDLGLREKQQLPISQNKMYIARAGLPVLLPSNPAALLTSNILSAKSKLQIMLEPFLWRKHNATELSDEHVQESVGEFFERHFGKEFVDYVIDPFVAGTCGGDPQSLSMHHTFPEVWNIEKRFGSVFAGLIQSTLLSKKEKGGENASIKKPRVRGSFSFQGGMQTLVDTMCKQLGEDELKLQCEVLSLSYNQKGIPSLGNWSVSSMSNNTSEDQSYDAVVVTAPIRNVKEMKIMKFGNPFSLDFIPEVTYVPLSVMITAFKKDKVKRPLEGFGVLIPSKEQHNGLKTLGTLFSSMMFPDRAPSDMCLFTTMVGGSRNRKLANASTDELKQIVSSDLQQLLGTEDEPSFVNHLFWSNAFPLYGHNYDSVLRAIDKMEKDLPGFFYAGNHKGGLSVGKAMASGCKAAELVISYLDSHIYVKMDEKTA

[4] = target: T3, recombinant wildtype and mutated PPO (Amaranthus PPO2: PPX2L_WC SEQ ID NO 2, PPX2L_AC SEQ ID NO 4, dG210 SEQ ID NO 6 & 8) (Amaranthus tuberculatus, UniProt Q0NZW9, D133A/F420M/R128N)
T3 sequence (Q0NZW9 1-534 R128N/D133A/F420M): T1 sequence (Q0NZW9 1-534 R128Y/D133A/F420I) with Y128N, I420M

[5] = target: recombinant wildtype and mutated PPO (Amaranthus PPO2: PPX2L_WC SEQ ID NO 2, PPX2L_AC SEQ ID NO 4, dG210 SEQ ID NO 6 & 8) (Amaranthus tuberculatus, UniProt Q0NZW9, D133A/F420M/R128V)
recombinant wildtype and mutated PPO (Amaranthus PPO2: PPX2L_WC SEQ ID NO 2, PPX2L_AC SEQ ID NO 4, dG210 SEQ ID NO 6 & 8) (Amaranthus tuberculatus, UniProt Q0NZW9, D133A/F420M/R128V), sequence (Q0NZW9 1-534 R128V/D133A/F420M): as the sequence (Q0NZW9 1-534 R128M/D133A/F420M) above, with M128V counted along it

[6] = target: T4, recombinant wildtype and mutated PPO (Amaranthus PPO2: PPX2L_WC SEQ ID NO 2, PPX2L_AC SEQ ID NO 4, dG210 SEQ ID NO 6 & 8) (Amaranthus tuberculatus, UniProt Q0NZW9, D133A/F420V/R128I)
T4 sequence (Q0NZW9 1-534 R128I/D133A/F420V): T1 sequence (Q0NZW9 1-534 R128Y/D133A/F420I) with Y128I, I420V

Structure (SMILES)	IC50 [1]	IC50 [2]	IC50 [3]	IC50 [4]	IC50 [5]	IC50 [6]
C#CCN1C(=O)C(F)(F)Oc2cc(F)c(-n3c(=O)n(C)c(=S)n(C)c3=O)cc21	4.82e-07 M and 2.63e-06 M	4.05e-07 M and 2.45e-07 M	7.69e-08 M and 7.07e-08 M and 4.84e-08 M	7.12e-08 M and 4.97e-08 M	6.5e-08 M and 4.86e-08 M	2.14e-07 M and 3.15e-07 M
C#CCN1C(=O)C(F)(F)Oc2cc(F)c(-n3c(=O)cc(C(F)(F)F)n(C)c3=O)cc21	4.46e-07 M	2.69e-07 M	4.94e-08 M	5.94e-08 M	4.65e-08 M	9.01e-08 M
C#CCN1C(=O)C(F)(F)Oc2cc(F)c(N3C(=O)C4=C(CCCC4)C3=O)cc21	≥ 1e-05 M	≥ 1e-05 M	≥ 1e-05 M	≥ 1e-05 M	3.11e-06 M	4.32e-06 M
COC(Oc1ccccc1Oc1cc(-n2c(=O)cc(C(F)(F)F)n(C)c2=O)c(F)cc1Cl)C(=O)OC1CCCCC1 (stereo not drawn)	6.82e-07 M	1.07e-07 M	3.22e-08 M	1.48e-07 M	1.49e-08 M	3.78e-08 M
COC(=O)C(OC)Oc1ccccc1Oc1cc(-n2c(=O)cc(C(F)(F)F)n(C)c2=O)c(F)cc1Cl (stereo not drawn)	2.86e-08 M	7.13e-08 M	1.62e-08 M	1.2e-07 M	1.49e-08 M	1.71e-08 M
CCOC(=O)COc1ncccc1Oc1cc(-n2c(=O)cc(C(F)(F)F)n(C)c2=O)c(F)cc1Cl [A.13, ethyl [3-[2-chloro-4-fluoro-5-(1-methyl-6-trifluoromethyl-2,4-dioxo-1,2,3,4-tetrahydropyrimidin-3-yl)phenoxy]-2-pyridyloxy]acetate]	4.64e-07 M	2.01e-07 M	4.83e-08 M	1.92e-07 M	3.58e-08 M	4.38e-08 M
O=C(O)c1cc(Oc2ccc(C(F)(F)F)cc2Cl)ccc1[N+](=O)[O-] [ACIFLUORFEN]	≥ 1e-05 M	≥ 1e-05 M	≥ 1e-05 M	≥ 1e-05 M	≥ 1e-05 M	1.21e-05 M
C=CCOC(=O)C(C)(C)OC(=O)c1cc(-n2c(=O)cc(C(F)(F)F)n(C)c2=O)ccc1Cl [BUTAFENACIL]	5.47e-08 M	8.02e-08 M	4.38e-08 M	2.84e-08 M	1.05e-08 M	2.56e-08 M
CCOC(=O)C(Cl)Cc1cc(-n2nc(C)n(C(F)F)c2=O)c(F)cc1Cl (stereo not drawn) [CARFENTRAZONE-ETHYL]	2.82e-07 M	1.61e-07 M	7.86e-08 M	1.88e-07 M	2.29e-08 M	2.07e-07 M
C#CCN1C(=O)COc2cc(F)c(N3C(=O)C4=C(CCCC4)C3=O)cc21 [Flumioxazin, flumioxazin]	≥ 1e-05 M	≥ 1e-05 M	≥ 1e-05 M	6.15e-06 M	≥ 1e-05 M	≥ 1e-05 M
CS(=O)(=O)NC(=O)c1cc(Oc2ccc(C(F)(F)F)cc2Cl)ccc1[N+](=O)[O-] [Fomesafen, fomesafen]	2.15e-05 M	≥ 1e-05 M	≥ 1e-05 M	1.07e-05 M	≥ 1e-05 M	2.79e-06 M
CCOC(=O)C(C)OC(=O)c1cc(Oc2ccc(C(F)(F)F)cc2Cl)ccc1[N+](=O)[O-] (stereo not drawn) [Lactofen, lactofen]	4.8e-08 M	1.3e-07 M	1.31e-07 M	1.67e-07 M	9.41e-08 M	1.4e-08 M
CCOc1cc(Oc2ccc(C(F)(F)F)cc2Cl)ccc1[N+](=O)[O-] [OXIFLUORFEN]	1.17e-06 M	4.21e-06 M	7.36e-07 M	3.91e-07 M	1.05e-06 M	1.98e-07 M
